According to the SangsterLogP compilation:

Experiment: method code SF-FL/RC, from DOI: 10.1007/bf00499868, PMID: 43479
Details: not given

First: COc1cc(CCN)ccc1O
Second: COc1cc(C(O)CN)ccc1O (stereo unspecified)
The logP of the first is higher: -0.08 for the first, -1.05 for the second.

First: CNCC(O)c1ccc(O)cc1 (stereo unspecified)
Second: NCC(O)c1ccc(O)cc1 (stereo unspecified)
The logP of the first is higher: -0.45 for the first, -0.75 for the second.

Compared with `CNC[C@H](O)c1ccc(O)c(O)c1`, `CNCC(O)c1ccc(O)c(OC)c1` (stereo unspecified) is higher in logP: -1.37 for the first, -0.64 for the second.

Compared with `C[C@H](N)[C@H](O)c1cccc(O)c1`, `CC(N)C(O)c1ccc(O)c(O)c1` (stereo unspecified) is lower in logP: -0.27 for the first, -1.43 for the second.

Same assay, conditions: pH 7.4

Compared with `COc1cc(CCO)ccc1O`, `COc1cc(C(O)CO)ccc1O` (stereo unspecified) is lower in logD: 0.47 for the first, -0.58 for the second.

`OCC(O)c1ccc(O)c(O)c1` (stereo unspecified) showed a logD of -1.01.
